Measured values as given in patent US20240207292A1, “BORONIC ACID COMPOUNDS, COMPOSITIONS AND METHODS” (Trustees of Tufts College, priority 2021, published 2024).
Read-outs that look alike come from different tables or passages of the source. Square brackets hold non-standard residues; d marks the D form. Peptide text beside a SMILES is read from it. * marks the point of attachment. DOTA(Ga) = O=C1CN2CCN3CCN(CC(=O)*)CCN(CC2)CC(=O)[O][Ga]([O]1)[O]C(=O)C3; DOTAGA = O=C(O)CN1CCN(CC(=O)O)CCN(C(CCC(=O)*)C(=O)O)CCN(CC(=O)O)CC1; DOTA = O=C(O)CN1CCN(CC(=O)O)CCN(CC(=O)*)CCN(CC(=O)O)CC1; Pyrrolidine(2S-CN,4,4-F2) = N#C[C@@H]1CC(F)(F)CN1*; X6 = CN1CC(=O)C2(C1)OC([C@@H]1CCCN1*)OC2=O; boroPro = OB(O)[C@@H]1CCCN1*

Key:
[1] = target: recombinant human fibroblast activation protein (FAP) (Homo sapiens (Human), UniProt Q12884); assay: In vitro assay fibroblast activation protein IC50 (Example 21); format: biochemical
Procedure: (§1) The purpose of this assay is to determine the IC50 of various inhibitors against recombinant human dipeptidyl peptidase IV (DPPIV), fibroblast activation protein (FAP) or prolyl oligopeptidase (PREP).
(§2) The assays are conducted in the following steps: • 1 Dissolve the compound in DMSO to a final concentration of 100 mM. From this, prepare a 1 mM stock at pH 7.5 in 50 mM Tris, 140 mM NaCl Buffer (FAP)/pH 7.5 in 25 mM Tris, 250 mM NaCl Buffer/[…]. • 2. Serial dilute (1:10) the 1 mM compound stocks prepared previously into the appropriate assay buffer (FAP: 50 mM Tris, 140 mM NaCl, pH 7.5/PREP: 25 mM Tris, 0.25 M NaCl, pH 7.5/DPPIV: 25 mM Tris, pH 8.0) to one row of a 96-well plate. • 3. […] Dilute the enzymes into their appropriate assay buffers. The final enzyme concentrations should be 0.1, 1.2, and 0.6 nM for DPPIV, FAP and PREP respectively. Add 180 μL to each well needed in columns 2-10. Column 1(A,B,C) should be prepared with 200 μl of appropriate assay buffer as control. Column 1(D,E,F,G,H) should be prepared with 20 μl of appropriate assay buffer and 180 ul enzyme as no inhibitor control. • 5. Add 20 μL of the compound of interest from the dilution plate prepared in step 2 to columns 2-10 of the assay plate where appropriate. Each sample should be tested in triplicate. Allow this to incubate for 10 minutes at room temperature, shaking the plate for the first two minutes. • 6. Add 10 μL of 20× substrate prepared in step 3 to each well and allow this to incubate for 15 minutes at room temperature, shaking the plate for the first two minutes. • 7. Read the fluorescence at λex: 380, λem: 460. (DPcore=[dAla|dSer|Gly]-[boroPro|Pro-nitrile], XXaa=alpha-amino acid)

[2] = target: recombinant human prolyl oligopeptidase (PREP) (Homo sapiens (Human), UniProt P48147); assay: In vitro assay prolyl oligopeptidase IC50 (Example 21); format: biochemical
Procedure: as §1, §2

Chain of recombinant human prolyl oligopeptidase (PREP) (P48147 whole entry): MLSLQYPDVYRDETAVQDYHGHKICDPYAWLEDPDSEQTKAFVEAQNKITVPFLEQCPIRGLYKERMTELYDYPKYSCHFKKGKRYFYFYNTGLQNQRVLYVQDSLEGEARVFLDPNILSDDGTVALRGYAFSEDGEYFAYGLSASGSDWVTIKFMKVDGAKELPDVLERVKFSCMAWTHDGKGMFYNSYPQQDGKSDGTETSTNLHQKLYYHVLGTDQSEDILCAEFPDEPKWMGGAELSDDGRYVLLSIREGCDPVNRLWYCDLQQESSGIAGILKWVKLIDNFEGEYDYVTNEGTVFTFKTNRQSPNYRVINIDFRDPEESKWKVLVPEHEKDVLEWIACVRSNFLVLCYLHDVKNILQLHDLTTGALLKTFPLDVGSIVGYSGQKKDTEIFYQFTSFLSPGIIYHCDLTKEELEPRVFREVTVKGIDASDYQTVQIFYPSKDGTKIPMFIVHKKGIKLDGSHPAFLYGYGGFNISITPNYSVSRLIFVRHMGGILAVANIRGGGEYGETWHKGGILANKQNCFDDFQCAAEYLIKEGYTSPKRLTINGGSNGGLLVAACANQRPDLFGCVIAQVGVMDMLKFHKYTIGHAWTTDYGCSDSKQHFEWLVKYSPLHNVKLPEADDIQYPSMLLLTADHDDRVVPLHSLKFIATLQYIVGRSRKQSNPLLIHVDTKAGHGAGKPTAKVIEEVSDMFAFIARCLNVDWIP
Chain of recombinant human fibroblast activation protein (FAP) (Q12884 whole entry): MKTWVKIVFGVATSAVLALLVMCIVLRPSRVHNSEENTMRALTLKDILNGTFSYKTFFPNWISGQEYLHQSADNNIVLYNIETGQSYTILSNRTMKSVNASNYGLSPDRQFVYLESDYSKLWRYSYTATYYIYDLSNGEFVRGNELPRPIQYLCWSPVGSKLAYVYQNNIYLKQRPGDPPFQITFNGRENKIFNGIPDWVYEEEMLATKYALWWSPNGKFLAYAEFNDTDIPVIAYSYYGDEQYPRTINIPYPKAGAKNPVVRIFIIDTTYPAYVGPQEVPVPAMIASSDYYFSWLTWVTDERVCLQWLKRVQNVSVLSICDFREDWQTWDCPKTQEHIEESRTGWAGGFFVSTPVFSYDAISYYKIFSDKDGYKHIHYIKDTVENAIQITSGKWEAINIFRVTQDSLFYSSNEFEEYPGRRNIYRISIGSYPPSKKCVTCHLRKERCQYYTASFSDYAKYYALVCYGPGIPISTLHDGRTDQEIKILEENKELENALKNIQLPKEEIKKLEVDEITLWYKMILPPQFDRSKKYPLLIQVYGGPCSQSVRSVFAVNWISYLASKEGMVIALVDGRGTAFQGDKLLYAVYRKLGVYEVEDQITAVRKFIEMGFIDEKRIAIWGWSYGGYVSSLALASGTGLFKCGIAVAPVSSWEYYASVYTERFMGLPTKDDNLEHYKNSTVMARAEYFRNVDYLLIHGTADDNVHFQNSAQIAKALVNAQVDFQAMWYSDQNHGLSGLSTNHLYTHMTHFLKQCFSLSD

Row | Compound | IC50 ([1]; Z-Gly-Pro-AMC, 1.2 nM enzyme) [nM] | further results
1 | CC(C)[C@H](NC(=O)CNC(=O)CNC(=O)CNC(=O)CNC(=O)CNC(=O)CN1CCN2CCN3CCN(CC1)CC(=O)[O][Ga]([O]C(=O)C2)[O]C(=O)C3)C(=O)N[C@H](C)C(=O)N1CCC[C@H]1B(O)O [6848GA] ({DOTA(Ga)}-GGGGGV[dA]-boroPro) | 180 | –
2 | CC(C)[C@H](NC(=O)CNC(=O)CNC(=O)CN1CCN(CC(=O)O)CCN(CC(=O)O)CCN(CC(=O)O)CC1)C(=O)N[C@H](C)C(=O)N1CC(F)(F)C[C@H]1C#N [compound 6790] ({DOTA}-GGV[dA]-{Pyrrolidine(2S-CN,4,4-F2)}) | 107 | IC50 ([2]; Z-Gly-Pro-AMC, 0.6 nM enzyme): 157000 nM
3 | CC(C)[C@H](NC(=O)c1ccc(CNC(=O)CN2CCN3CCN4CCN(CC2)CC(=O)[O][Ga]([O]C(=O)C3)[O]C(=O)C4)cc1)C(=O)N[C@H](C)C(=O)N1CCC[C@H]1B(O)O [6967 GA] | – | IC50 [1]: 65 nM
4 | CC(C)[C@H](NC(=O)[C@@H](C)NC(=O)CNC(=O)CNC(=O)CNC(=O)CN1CCN(CC(=O)O)CCN(CC(=O)O)CCN(CC(=O)O)CC1)C(=O)N[C@H](C)C(=O)N1CCC[C@H]1B(O)O [compound 6839] ({DOTA}-GGG[dA]V[dA]-boroPro) | 21 | –
5 | CC(C)[C@H](NC(=O)CCCCNC(=O)CN1CCN(CC(=O)O)CCN(CC(=O)O)CCN(CC(=O)O)CC1)C(=O)N[C@H](C)C(=O)N1CCC[C@H]1B(O)O [compound 6940, DOTA-PEN-Val-D-alaboroPro] | 5.2 | –
6 | CC(C)[C@H](NC(=O)CNC(=O)CCC(C(=O)O)N1CCN(CC(=O)O)CCN(CC(=O)O)CCN(CC(=O)O)CC1)C(=O)N[C@H](C)C(=O)N1CCC[C@H]1B(O)O (stereo partly drawn) [compound 6795] | 8.9 | IC50 ([2]; Z-Gly-Pro-AMC, 0.6 nM enzyme): 5520 nM
7 | CC(C)[C@H](NC(=O)CNC(=O)CNC(=O)CN1CCN(CC(=O)O)CCN(CC(=O)O)CCN(CC(=O)O)CC1)C(=O)N[C@H](C)C(=O)N1CCC[C@H]1C1OC(=O)C2(CN(C)CC2=O)O1 (stereo partly drawn) [6522M] ({DOTA}-GGV[dA]-X6) | 280 | –
8 | CC(C)[C@H](NC(=O)CNC(=O)CNC(=O)CNC(=O)CCC(C(=O)O)N1CCN(CC(=O)O)CCN(CC(=O)O)CCN(CC(=O)O)CC1)C(=O)N[C@H](C)C(=O)N1CCC[C@H]1B(O)O (stereo partly drawn) [compound 6808] ({DOTAGA}-GGGV[dA]-boroPro) | 11.5 | –
9 | C[C@@H](NC(=O)c1ccc(CNC(=O)CN2CCN3CCN4CCN(CC2)CC(=O)[O][Lu]([O]C(=O)C3)[O]C(=O)C4)nc1)C(=O)N1CCC[C@H]1B(O)O [6556LU] | – | IC50 [2]: 895 nM; IC50 [1]: 2.9 nM
10 | C[C@@H](NC(=O)CN1CCN2CC(=O)O[C]3(CN4CCN5CC(=O)O[C](C1)(C5)[Gd]3[O]C(=O)C4)C2)C(=O)N1CCC[C@H]1B(O)O (stereo partly drawn) [4535GD] | 760 | IC50 ([2]; Z-Gly-Pro-AMC, 0.6 nM enzyme): > 10000 nM
11 | C[C@@H](NC(=O)CN1CCN(CC(=O)O)CCN(CC(=O)O)CCN(CC(=O)O)CC1)C(=O)N1CCC[C@H]1B(O)O [compound 4535] | 290 | IC50 ([2]; Z-Gly-Pro-AMC, 0.6 nM enzyme): > 10000 nM
12 | CC(C)[C@H](NC(=O)CCNC(=O)CN1CCN(CC(=O)O)CCN(CC(=O)O)CCN(CC(=O)O)CC1)C(=O)N[C@H](C)C(=O)N1CCC[C@H]1B(O)O [compound 6615, DOTA-betaala-Val-D-ala-boroPro] | 121 | –
13 | C[C@@H](NC(=O)c1ccc(NNC(=O)CCCCCNC(=O)CN2CCN(CC(=O)O)CCN(CC(=O)O)CCN(CC(=O)O)CC2)nc1)C(=O)N1CCC[C@H]1B(O)O [compound 6958] | – | IC50 [1]: 3.2 nM
14 | CC(C)[C@H](NC(=O)CCCCNC(=O)CN1CCN2CCN3CCN(CC1)CC(=O)[O][Ga]([O]C(=O)C2)[O]C(=O)C3)C(=O)N[C@H](C)C(=O)N1CCC[C@H]1B(O)O [6940GA, DOTA(Ga)-PEN-Val-Dala-boroPro] | 110 | –
15 | CC(C)[C@H](NC(=O)CCCNC(=O)CN1CCN2CCN3CCN(CC1)CC(=O)[O][Ga]([O]C(=O)C2)[O]C(=O)C3)C(=O)N[C@H](C)C(=O)N1CCC[C@H]1B(O)O [6614GA, DOTA(Ga)-GABA-Val-D-ala-boroPro] | 218 | –
16 | CC(C)[C@H](NC(=O)CCCCNC(=O)CN1CCN2CCN3CCN(CC1)CC(=O)[O][Lu]([O]C(=O)C2)[O]C(=O)C3)C(=O)N[C@H](C)C(=O)N1CCC[C@H]1B(O)O [6940LU, DOTA(Lu)-PEN-Val-Dala-boroPro] | 23.6 | –
17 | C[C@@H](NC(=O)c1ccc(NC(=O)CCNC(=O)CN2CCN3CCN4CCN(CC2)CC(=O)[O][Lu]([O]C(=O)C3)[O]C(=O)C4)cc1)C(=O)N1CCC[C@H]1B(O)O [6590LU] | – | IC50 [1]: 0.4 nM

Row | Compound | IC50 ([1]; Z-Gly-Pro-AMC, 1.2 nM enzyme) [nM] | further results
18 | CC(C)[C@H](NC(=O)CNC(=O)CNC(=O)CNC(=O)CN1CCN2CCN3CCN(CC1)CC(=O)[O][Ga]([O]C(=O)C2)[O]C(=O)C3)C(=O)N[C@H](C)C(=O)N1CCC[C@H]1B(O)O [6834GA] ({DOTA(Ga)}-GGGV[dA]-boroPro) | 439 | –
19 | CC(C)[C@H](NC(=O)CNC(=O)CNC(=O)CNC(=O)CNC(=O)CCC(C(=O)O)N1CCN(CC(=O)O)CCN(CC(=O)O)CCN(CC(=O)O)CC1)C(=O)N[C@H](C)C(=O)N1CCC[C@H]1B(O)O (stereo partly drawn) [compound 6868] ({DOTAGA}-GGGGV[dA]-boroPro) | 21 | –
20 | C[C@@H](NC(=O)c1ccc(NNC(=O)CN2CCN3CCN4CCN(CC2)CC(=O)[O][Ga]([O]C(=O)C3)[O]C(=O)C4)nc1)C(=O)N1CCC[C@H]1B(O)O [5183GA] | – | IC50 [1]: 46.1 nM
21 | C[C@@H](NC(=O)c1ccc(NNC(=O)CNC(=O)CN2CCN3CCN(CC(=O)O)CCN(CC2)CC(=O)[O][Cu][O]C(=O)C3)cc1)C(=O)N1CCC[C@H]1B(O)O [6487CU] | – | IC50 [1]: 8.8 nM
22 | CC(C)[C@H](NC(=O)CNC(=O)CNC(=O)CNC(=O)CNC(=O)CNC(=O)CN1CCN(CC(=O)O)CCN(CC(=O)O)CCN(CC(=O)O)CC1)C(=O)N[C@H](C)C(=O)N1CCC[C@H]1B(O)O [compound 6848] ({DOTA}-GGGGGV[dA]-boroPro) | 14.8 | –
23 | CC(C)[C@H](NC(=O)CCCCCNC(=O)CN1CCN2CCN3CCN(CC1)CC(=O)[O][Ga]([O]C(=O)C2)[O]C(=O)C3)C(=O)N[C@H](C)C(=O)N1CCC[C@H]1B(O)O [6948GA, DOTA(Ga)-HEX-Val-Dala-boroPro] | 144 | –
24 | CC(C)[C@H](NC(=O)CNC(=O)CNC(=O)CNC(=O)CNC(=O)CNC(=O)CCC(C(=O)O)N1CCN(CC(=O)O)CCN(CC(=O)O)CCN(CC(=O)O)CC1)C(=O)N[C@H](C)C(=O)N1CCC[C@H]1B(O)O (stereo partly drawn) [compound 6869] ({DOTAGA}-GGGGGV[dA]-boroPro) | 1.1 | –
25 | CC(C)[C@H](NC(=O)CCCCCCNC(=O)CN1CCN2CCN3CCN(CC1)CC(=O)[O][Ga]([O]C(=O)C2)[O]C(=O)C3)C(=O)N[C@H](C)C(=O)N1CCC[C@H]1B(O)O [6949GA] | 181 | –
26 | CC(C)[C@H](NC(=O)CNC(=O)CNC(=O)CNC(=O)CNC(=O)CNC(=O)CNC(=O)CN1CCN(CC(=O)O)CCN(CC(=O)O)CCN(CC(=O)O)CC1)C(=O)N[C@H](C)C(=O)N1CCC[C@H]1B(O)O [compound 6850] ({DOTA}-GGGGGGV[dA]-boroPro) | 21 | –
27 | CC(C)[C@H](NC(=O)CCCCCCCNC(=O)CN1CCN2CCN3CCN(CC1)CC(=O)[O][Ga]([O]C(=O)C2)[O]C(=O)C3)C(=O)N[C@H](C)C(=O)N1CCC[C@H]1B(O)O [6947GA, DOTA(Ga)-OCT-Val-Dala-boroPro] | 219 | –
28 | C[C@@H](NC(=O)c1ccc(NNC(=O)CCCNC(=O)CN2CCN3CCN4CCN(CC2)CC(=O)[O][Gd]([O]C(=O)C3)[O]C(=O)C4)nc1)C(=O)N1CCC[C@H]1B(O)O [6489 GD] | – | IC50 [1]: 1.1 nM
29 | CC(C)[C@H](NC(=O)CNC(=O)CNC(=O)CNC(=O)CN1CCN(CC(=O)O)CCN(CC(=O)O)CCN(CC(=O)O)CC1)C(=O)N[C@H](C)C(=O)N1CCC[C@H]1B(O)O [compound 6834] ({DOTA}-GGGV[dA]-boroPro) | 26.8 | –
30 | C[C@@H](NC(=O)c1ccc(NC(=O)CCCCNC(=O)CN2CCN3CCN4CCN(CC2)CC(=O)[O][Ga]([O]C(=O)C3)[O]C(=O)C4)cc1)C(=O)N1CCC[C@H]1B(O)O [6590 GA] | – | IC50 [1]: 15 nM
31 | CC(C)[C@H](NC(=O)CNC(=O)CNC(=O)CNC(=O)CNC(=O)CN1CCN2CCN3CCN(CC1)CC(=O)[O][Ga]([O]C(=O)C2)[O]C(=O)C3)C(=O)N[C@H](C)C(=O)N1CCC[C@H]1B(O)O [6839GA] ({DOTA(Ga)}-GGGGV[dA]-boroPro) | 258 | –
32 | CC(C)[C@H](NC(=O)CNC(=O)CN1CCN2CCN3CCN(CC1)CC(=O)[O][Ga]([O]C(=O)C2)[O]C(=O)C3)C(=O)N[C@H](C)C(=O)N1CCC[C@H]1B(O)O [6521GA] | 277 | –
33 | C[C@@H](NC(=O)c1ccc(NNC(=O)CN2CCN3CCN(CC(=O)O)CCN(CC2)CC(=O)[O][Cu][O]C(=O)C3)cc1)C(=O)N1CCC[C@H]1B(O)O [5183BU] | – | IC50 [1]: 10.3 nM
34 | CC(C)[C@H](NC(=O)CNC(=O)CNC(=O)CNC(=O)CNC(=O)CNC(=O)CNC(=O)CCC(C(=O)O)N1CCN(CC(=O)O)CCN(CC(=O)O)CCN(CC(=O)O)CC1)C(=O)N[C@H](C)C(=O)N1CCC[C@H]1B(O)O (stereo partly drawn) [compound 6870] ({DOTAGA}-GGGGGGV[dA]-boroPro) | 9.2 | –
